The values below come from PMC12006963, “Application of Deuterium in an M1 Positive Allosteric Modulator Back-Up Program: The Discovery of VU6045422” (ACS Chemical Neuroscience, 2025).

Common to all, as to format: in vitro ADME
Series [1] is described as follows: Plasma protein binding, equilibrium dialysis (cyno). The following applies: cynomolgus monkey, pH 7.4, read-out: fu,plasma. The method, then:
(§1) page 5: Drug Metabolism Methods: In vitro Plasma protein binding and Brain homogenate binding: Determination of fraction unbound (f u) in plasma was conducted in vitro via equilibrium dialysis using HTDialysis (HTD) membrane plates. The top half of the plate was filled with 100 uL of Dubelco’s Phosphate Buffered Saline, pH 7.4 (DPBS). Compounds were diluted into plasma from each species (5 µM final concentration), which was aliquoted in triplicate to the ‘bottom half’ of the prepared HTD plate wells. The HTD plate was sealed and incubated for 6 hours at 37 °C. Following incubation, each well (both top and bottom halves) were transferred (20 µL) to the corresponding wells of a 96- shallow-well (V-bottom) plate. The daughter plates were then matrix-matched (DPBS side wells received equal volume of plasma, and plasma side wells received equal volume of DPBS), and extraction solution (120 µL; acetonitrile containing 50 nM carbamazepine as IS) was added to all wells of both daughter plates to precipitate protein and extract test article. The plates were then sealed and centrifuged (3500 rcf) for 10 minutes at ambient temperature. Supernatant (60 µL) from each well of the daughter plates was then transferred to the corresponding wells of new daughter plates (96-shallow-well, V bottom) containing water (Milli-Q, 60 µL/well), and the plates were sealed in preparation for LC-MS/MS analysis (see LC-MS/MS analysis method below). The unbound fraction (f u) was calculated following the equation below, and mean values for each species were calculated from 3 replicates. […] Fraction unbound for both plasma and brain samples was determined using Equation 4. f = Concbuffer u Concplasma Equation 4 Determination of fraction unbound in plasma. […]
On the technique in general: In equilibrium dialysis only unbound substance equilibrates across the membrane.

The nature of series [2]: Predicted hepatic clearance, hepatic microsomes (cyno).
A further series deals with CYP 3A4 (Homo sapiens, UniProt P08684). Nature of the series: CYP inhibition 3A4. An excerpt: Table 1 Pharmacology and In Vitro DMPK Profiles of M1 PAMs 1, 3, and 5 | column: 1; 3; 5
CYP 3A4, sequence (P08684 whole entry): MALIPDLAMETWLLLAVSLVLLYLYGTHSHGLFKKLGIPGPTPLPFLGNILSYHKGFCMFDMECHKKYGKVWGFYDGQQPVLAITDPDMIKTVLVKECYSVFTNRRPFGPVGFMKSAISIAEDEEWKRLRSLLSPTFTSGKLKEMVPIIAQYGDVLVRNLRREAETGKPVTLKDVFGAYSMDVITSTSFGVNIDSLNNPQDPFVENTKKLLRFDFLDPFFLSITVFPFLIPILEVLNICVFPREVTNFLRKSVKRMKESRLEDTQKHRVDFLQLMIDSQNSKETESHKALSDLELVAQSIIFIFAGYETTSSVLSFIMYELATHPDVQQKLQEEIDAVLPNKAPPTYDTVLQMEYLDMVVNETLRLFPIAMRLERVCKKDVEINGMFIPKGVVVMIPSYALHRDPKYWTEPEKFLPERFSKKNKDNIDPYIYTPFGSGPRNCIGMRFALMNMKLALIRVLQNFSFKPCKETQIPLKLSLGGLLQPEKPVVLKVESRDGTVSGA
Series [3] can be described thus: Plasma protein binding, equilibrium dialysis (dog). Particulars: pH 7.4, read-out: fu,plasma. The protocol: as §1
The nature of series [4]: Hepatocyte metabolite identification (rat). The following applies: rat hepatocytes, 4 h incubation. The protocol: Prior to full characterization of deuterated analogues 3 and 5, they were incubated in rat, dog, monkey, and human hepatocytes, along with 1, to determine the amount of parent remaining, as well as the degree of undesired oxidative metabolites 2, 4, and 6 (Figure 2). […] For the gem-dideutero congener 3, metabolic stability was improved in vitro. […] Thus, in hepatocytes in vitro, the kinetic isotope effect engendered greater metabolic stability of the labile hot spot on the lactam. It remained to be seen if this effect would translate in vivo, but we first had to assess the impact of the deuterated analogues on molecular pharmacology, in vitro DMPK, standard low-dose in vivo DMPK and, if warranted, in vivo efficacy in a rat novel object recognition (NOR) behavioral assay.

The nature of series [5]: Plasma protein binding, equilibrium dialysis (rat). The following applies: pH 7.4, read-out: fu,plasma. The protocol: as §1
Series [6] is described as follows: Predicted hepatic clearance, hepatic microsomes (rat). The protocol: After a 5 min preincubation, the reaction was initiated by the addition of NADPH (1 mM). At selected time intervals (0, 3, 7, 15, 25, and 45 min), aliquots were taken and subsequently placed into a 96-well plate containing cold acetonitrile with internal standard (50 ng/mL carbamazepine). Plates were then centrifuged at 3000 rcf (4 °C) for 10 min, and the supernatant was transferred to a separate 96-well plate and diluted 1:1 with water for LC/MS/MS analysis. The in vitro half-life ( 1/2, min, Eq. 1), intrinsic clearance (CLint, mL/min/kg, Eq. 2), and subsequent predicted hepatic clearance (CLhep, mL/min/kg, Eq. 3) was determined employing the […]
where k represents the slope from linear regression analysis of the natural log percent remaining of a test compound as a function of incubation time […]
(2) CLint = in vitroT1/2 x mg microsomes x gram liver x kg body wt ascale-up factors: of 20 (human) or 45 (rat) […]
where Qh (hepatic blood flow, mL/min/kg) is 21 (human) or 70 (rat).
LC/MS/MS Bioanalysis of Samples from Plasma Protein Binding and Intrinsic Clearance […]
Samples were analyzed on a Thermo Electron TSQ Quantum Ultra triple quad mass spectrometer (San Jose, CA) via electrospray ionization (ESI) with two Themo Electron Accella pumps (San Jose, CA), and a Leap Technologies CTC PAL autosampler (Carrboro, NC). Analytes were separated by gradient elution on a dual column system with two Thermo Hypersil Gold (2.1 x 30 mm, 1.9 µm) columns (San Jose, CA) thermostated at 40 °C. HPLC mobile phase A was 0.1% formic acid in water and mobile phase B was 0.1% formic acid in acetonitrile. The gradient started […]
for 0.2 min; returned to 10% B in 0.1 min. The total run time was 1.3 min and the HPLC flow rate was 0.8 mL/min. While pump 1 ran the gradient method, pump 2 equilibrated the alternate column isocratically at 10% B. Compound optimization, data collection, and processing was performed using Thermo Electron's QuickQuan software (v2.3) and Xcalibur (v2.0.7 SP1).
In vivo DMPK experimental:
Determination of brain to plasma ratio: […]

`Cn1cc2c(-c3cc(F)c(CN4Cc5ncccc5C4=O)c(F)c3)cccc2n1` [compound 1]: the fraction unbound at 6 h, 5 µM was determined as 0.059 in series [1], 0.076 in series [3] and 0.028 in series [5]. Also, the “Predicted CLhep” value in series [2] is reported as 5.6 mL/min/kg; in series [6] it was 5.7 mL/min/kg. Also, the IC50 at CYP 3A4 is > 30 µM. The “% Total Peak Area, parent remaining” value in series [4] was 76.3%.
With `[2H]C1([2H])c2ncccc2C(=O)N1Cc1c(F)cc(-c2cccc3nn(C)cc23)cc1F` [compound 3], the fraction unbound at 6 h, 5 µM in series [1] was determined as 0.039; in series [3] it was 0.082; in series [5], 0.034. The “Predicted CLhep” value in series [2] is 27.4 mL/min/kg; in series [6], 41.3 mL/min/kg. Besides, the half-maximal inhibitory concentration (IC50) on CYP 3A4 was > 30 µM. Further, the “% Total Peak Area, parent remaining” value in series [4] came out at 87.0%.
On to `[2H]C1([2H])c2ncccc2C(=O)N1Cc1c(F)cc(-c2cccc3nn(C([2H])([2H])[2H])cc23)cc1F` [compound 5], for which the fraction unbound at 6 h, 5 µM in series [1] amounted to 0.044; in series [3] it was 0.119; in series [5], 0.026. The “Predicted CLhep” value is 27.5 mL/min/kg in series [2] and 35.9 mL/min/kg in series [6]. The same compound yielded a half-inhibitory concentration (IC50) against CYP 3A4 of 28.6 µM. Also, in series [4], the “% Total Peak Area, parent remaining” value was found to be 87.7%.

A word on the IC50: it is the point on the concentration scale where inhibition reaches its midpoint. Read a low IC50 as greater potency.
